Laboratory results reported in patent US10434067B2, “Composite formulation for oral administration comprising ezetimibe and rosuvastatin” (HANMI PHARM. CO., LTD., priority 2013, dated 2019).

Experiment: Forced degradation test of ezetimibe
Assay type: physicochemical
Conditions: for Amount of ezetimibe (%): 2 hours
Protocol: The main ingredient, ezetimibe was precisely weighed to about 100 mg and put in a 200 mL volumetric flask. Then, about 20 mL of 90% (v/v) acetonitrile (ACN) was added thereto, and then, completely dissolved by performing ultrasonic extraction for about 10 minutes. Next, the resultant mixture was subjected to a forced degradation test according to each condition using control, oxidation, a strong base, strong acid, and heat as described below.
1) Control: About 10 mL of distilled water was added to the mixture, and the mixture was left in an oven at a temperature of about 60° C. for about 2 hours to proceed a reaction, cooled down to room temperature, and 10 mL of distilled water was dropped thereto.
2) Oxidation: About 10 mL of a 0.5% (v/v) hydrogen peroxide solution was added to the mixture, and the mixture was left in an oven at a temperature of about 60° C. for about 2 hours to proceed a reaction, cooled down to room temperature, and 10 mL of distilled water was dropped thereto.
3) Strong base: About 10 mL of 0.1N NaOH was added to the mixture, and the mixture was left in an oven at a temperature of about 60° C. for about 2 hours to proceed a reaction, cooled down to room temperature, and t 10 mL of 0.1N HCl was dropped thereto (neutralization).
4) Strong acid: About 10 mL of 0.1N HCl was added to the mixture, and the mixture was left in an oven at a temperature of about 60° C. for about 2 hours to proceed a reaction, cooled down to room temperature, and about 10 mL of 0.1N NaOH 10 mL was dropped thereto (neutralization).
5) Heat: About 10 mL of distilled water was added to the mixture, and the mixture was left in an oven at a temperature of about 105° C. for about 2 hours to proceed a reaction, cooled down to room temperature, and about 10 mL of distilled water was dropped thereto.
Then, each of the samples obtained from the degradation test was cooled down to room temperature, and an extract solvent (i.e., a mixed solution of about 0.1 ml of 85% phosphate solution and about 1,000 ml of acetonitrile) was added thereto for each condition above, thereby preparing a test liquid in an amount of 200 mL. Then, the test liquid was analyzed by ‘HPLC’ according to General Tests as set forth in the Korean Pharmacopoeia and calculated according to a ‘quantitation testing method’ and an ‘related compound testing method’, and the amounts of ezetimibe and its main degradation products having […] relative retention time (RRT) were calculated as shown in Table 9 below and FIG. 1.
In addition, the amounts of related compounds of each of the test liquids were calculated, and then, analyzed in connection with an RRT for respective test liquids.

Total % of related compounds in test liquid (Control): 0.63%
related compound at relative retention time 0.15 (Control): − (Less than 0.05%)
related compound at relative retention time 0.26 (Control): − (Less than 0.05%)
related compound at relative retention time 0.54 (Control): − (Less than 0.05%)
related compound at relative retention time 0.64 (Control): − (Less than 0.05%)
related compound at relative retention time 0.67 (Control): − (Less than 0.05%)
related compound at relative retention time 0.74 (Control): − (Less than 0.05%)
related compound at relative retention time 1.11 (Control): − (Less than 0.05%)
related compound at relative retention time 1.18 (Control): − (Less than 0.05%)
Amount of ezetimibe (%) (Control: distilled water, 60° C.): 57.90%
Total % of related compounds in test liquid (Heat): 1.97%
related compound at relative retention time 0.15 (Heat): − (Less than 0.05%)
related compound at relative retention time 0.26 (Heat): − (Less than 0.05%)
related compound at relative retention time 0.54 (Heat): − (Less than 0.05%)
related compound at relative retention time 0.64 (Heat): − (Less than 0.05%)
related compound at relative retention time 0.67 (Heat): − (Less than 0.05%)
related compound at relative retention time 0.74 (Heat): − (Less than 0.05%)
related compound at relative retention time 1.11 (Heat): − (Less than 0.05%)
related compound at relative retention time 1.18 (Heat): + (0.05% or greater and less than 0.10%)
Amount of ezetimibe (%) (Heat: distilled water, 105° C.): 0.21%
Total % of related compounds in test liquid (Oxidation): 0.61%
related compound at relative retention time 0.15 (Oxidation): − (Less than 0.05%)
related compound at relative retention time 0.26 (Oxidation): − (Less than 0.05%)
related compound at relative retention time 0.54 (Oxidation): − (Less than 0.05%)
related compound at relative retention time 0.64 (Oxidation): − (Less than 0.05%)
related compound at relative retention time 0.67 (Oxidation): − (Less than 0.05%)
related compound at relative retention time 0.74 (Oxidation): − (Less than 0.05%)
related compound at relative retention time 1.11 (Oxidation): − (Less than 0.05%)
related compound at relative retention time 1.18 (Oxidation): − (Less than 0.05%)
Amount of ezetimibe (%) (Oxidation: 0.5% hydrogen peroxide, 60° C.): 61.06%
Total % of related compounds in test liquid (Strong acid): 0.45%
related compound at relative retention time 0.15 (Strong acid): + (0.05% or greater and less than 0.10%)
related compound at relative retention time 0.47 (Strong acid): − (Less than 0.05%)
related compound at relative retention time 0.54 (Strong acid): − (Less than 0.05%)
related compound at relative retention time 0.64 (Strong acid): − (Less than 0.05%)
related compound at relative retention time 0.67 (Strong acid): − (Less than 0.05%)
related compound at relative retention time 0.74 (Strong acid): − (Less than 0.05%)
related compound at relative retention time 1.11 (Strong acid): − (Less than 0.05%)
related compound at relative retention time 1.18 (Strong acid): − (Less than 0.05%)
related compound at relative retention time 1.37 (Strong acid): − (Less than 0.05%)
Amount of ezetimibe (%) (Strong acid: 0.1N HCl, 60° C.): 100.31%
Total % of related compounds in test liquid (Strong base): 21.48%
related compound at relative retention time 0.15 (Strong base): + (0.05% or greater and less than 0.10%)
related compound at relative retention time 0.18 (Strong base): +++++ (1.0% or greater)
related compound at relative retention time 0.26 (Strong base): + (0.05% or greater and less than 0.10%)
related compound at relative retention time 0.54 (Strong base): +++++ (1.0% or greater)
related compound at relative retention time 0.74 (Strong base): + (0.05% or greater and less than 0.10%)
related compound at relative retention time 1.11 (Strong base): + (0.05% or greater and less than 0.10%)
related compound at relative retention time 1.37 (Strong base): +++++ (1.0% or greater)
Amount of ezetimibe (%) (Strong base: 0.1N NaOH, 60° C.): 1.56%
stability of ezetimibe (in words) (in a basic environment): unstable
stability of ezetimibe (in words) (under an acidic condition): stable
Structure (SMILES): O=C1[C@H](CC[C@H](O)c2ccc(F)cc2)[C@@H](c2ccc(O)cc2)N1c1ccc(F)cc1 [ezetimibe]
related compound at relative retention time 0.18 (Control): ++ (0.10% or greater and less than 0.20%)
related compound at relative retention time 0.47 (Control): +++ (0.20% or greater and less than 0.50%)
related compound at relative retention time 1.37 (Control): ++ (0.10% or greater and less than 0.20%)
related compound at relative retention time 0.18 (Heat): ++ (0.10% or greater and less than 0.20%)
related compound at relative retention time 0.47 (Heat): ++++ (0.50% or greater and less than 1.0%)
related compound at relative retention time 1.37 (Heat): ++++ (0.50% or greater and less than 1.0%)
related compound at relative retention time 0.18 (Oxidation): ++ (0.10% or greater and less than 0.20%)
related compound at relative retention time 0.47 (Oxidation): +++ (0.20% or greater and less than 0.50%)
related compound at relative retention time 1.37 (Oxidation): ++ (0.10% or greater and less than 0.20%)
related compound at relative retention time 0.18 (Strong acid): ++ (0.10% or greater and less than 0.20%)
related compound at relative retention time 0.26 (Strong acid): ++ (0.10% or greater and less than 0.20%)
related compound at relative retention time 0.47 (Strong base): +++ (0.20% or greater and less than 0.50%)
related compound at relative retention time 0.64 (Strong base): +++ (0.20% or greater and less than 0.50%)
related compound at relative retention time 0.67 (Strong base): ++ (0.10% or greater and less than 0.20%)
related compound at relative retention time 1.18 (Strong base): ++ (0.10% or greater and less than 0.20%)
